Assay results from ChEMBL document CHEMBL5291721, “A preclinical secondary pharmacology resource illuminates target-adverse drug reaction associations of marketed drugs” (Nat Commun, 2023).

What was measured:
[1] = molecular target: T1, 5-hydroxytryptamine receptor 1A (Homo sapiens, UniProt P08908)
T1 sequence (P08908 whole entry): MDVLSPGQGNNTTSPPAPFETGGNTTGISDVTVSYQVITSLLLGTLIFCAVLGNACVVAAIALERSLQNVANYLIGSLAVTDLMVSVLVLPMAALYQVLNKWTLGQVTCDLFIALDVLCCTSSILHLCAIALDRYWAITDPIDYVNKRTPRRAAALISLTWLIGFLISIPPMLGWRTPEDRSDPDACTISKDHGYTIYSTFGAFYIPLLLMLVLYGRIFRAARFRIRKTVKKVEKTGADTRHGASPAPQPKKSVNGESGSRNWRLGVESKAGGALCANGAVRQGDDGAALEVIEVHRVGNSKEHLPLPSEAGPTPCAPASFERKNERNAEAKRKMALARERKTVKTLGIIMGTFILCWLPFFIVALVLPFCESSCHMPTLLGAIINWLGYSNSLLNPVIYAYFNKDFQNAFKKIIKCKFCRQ

[2] = molecular target: Sodium-dependent dopamine transporter (Homo sapiens, UniProt Q01959)
D(3) dopamine receptor = D(3) dopamine receptor (Homo sapiens, UniProt P35462)
[3] = molecular target: Prostaglandin G/H synthase 1 (Homo sapiens, UniProt P23219); type: functional
[4] = molecular target: Sodium-dependent noradrenaline transporter (Homo sapiens, UniProt P23975)
Acetylcholinesterase = Acetylcholinesterase (Homo sapiens, UniProt P22303); type: functional
Progesterone receptor [5] = molecular target: T2, Progesterone receptor (Homo sapiens, UniProt P06401); type: functional
T2 sequence (P06401 whole entry): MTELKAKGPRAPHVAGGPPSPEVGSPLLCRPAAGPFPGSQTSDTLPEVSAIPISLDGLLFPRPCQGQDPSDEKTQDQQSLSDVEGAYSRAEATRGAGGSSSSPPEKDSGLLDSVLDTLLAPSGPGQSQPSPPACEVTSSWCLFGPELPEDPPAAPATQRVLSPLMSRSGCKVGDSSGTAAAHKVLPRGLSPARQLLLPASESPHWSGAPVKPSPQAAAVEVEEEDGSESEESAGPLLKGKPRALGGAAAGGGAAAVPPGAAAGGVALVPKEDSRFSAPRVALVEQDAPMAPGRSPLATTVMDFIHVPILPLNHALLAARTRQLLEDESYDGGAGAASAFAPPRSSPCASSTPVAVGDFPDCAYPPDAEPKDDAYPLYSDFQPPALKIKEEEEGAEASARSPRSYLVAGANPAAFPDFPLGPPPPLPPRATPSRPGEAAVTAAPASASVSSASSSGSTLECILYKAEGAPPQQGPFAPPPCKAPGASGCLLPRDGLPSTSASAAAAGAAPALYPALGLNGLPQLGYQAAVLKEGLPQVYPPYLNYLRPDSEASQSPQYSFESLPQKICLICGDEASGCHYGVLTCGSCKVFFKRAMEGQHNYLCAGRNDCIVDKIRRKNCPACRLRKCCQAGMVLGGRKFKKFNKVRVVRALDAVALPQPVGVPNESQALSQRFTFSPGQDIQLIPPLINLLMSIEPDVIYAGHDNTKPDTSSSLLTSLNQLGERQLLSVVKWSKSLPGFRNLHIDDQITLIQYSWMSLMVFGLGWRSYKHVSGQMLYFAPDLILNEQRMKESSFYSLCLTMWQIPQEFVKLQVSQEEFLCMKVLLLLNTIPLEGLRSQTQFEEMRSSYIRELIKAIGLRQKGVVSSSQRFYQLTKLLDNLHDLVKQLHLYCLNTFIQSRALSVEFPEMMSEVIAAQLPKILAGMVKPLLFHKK

Mu-type opioid receptor = Mu-type opioid receptor (Homo sapiens, UniProt P35372)
Progesterone receptor [6] = molecular target: T2, Progesterone receptor; type: functional; remark: listed apart in the source
[7] = molecular target: T1, 5-hydroxytryptamine receptor 1A; type: functional, cell-based
[8] = molecular target: T3, Gastrin/cholecystokinin type B receptor (Homo sapiens, UniProt P32239)
T3 sequence (P32239 whole entry): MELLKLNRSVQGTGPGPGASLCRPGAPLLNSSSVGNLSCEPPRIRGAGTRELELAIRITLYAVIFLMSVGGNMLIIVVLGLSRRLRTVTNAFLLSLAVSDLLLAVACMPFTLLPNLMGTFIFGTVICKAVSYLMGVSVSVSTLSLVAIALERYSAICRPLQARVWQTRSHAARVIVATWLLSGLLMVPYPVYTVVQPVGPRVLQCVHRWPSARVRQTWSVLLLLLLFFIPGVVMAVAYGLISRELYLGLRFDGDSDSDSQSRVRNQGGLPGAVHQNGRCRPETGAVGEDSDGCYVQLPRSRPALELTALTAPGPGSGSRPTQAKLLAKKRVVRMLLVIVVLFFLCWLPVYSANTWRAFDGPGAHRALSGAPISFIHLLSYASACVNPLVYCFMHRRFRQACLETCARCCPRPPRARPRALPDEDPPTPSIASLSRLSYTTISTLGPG

[9] = molecular target: Sodium-dependent serotonin transporter (Homo sapiens, UniProt P31645)
[10] = molecular target: Beta-2 adrenergic receptor (Homo sapiens, UniProt P07550)
Histamine H2 receptor = Histamine H2 receptor (Homo sapiens, UniProt P25021); type: functional, cell-based
Melanocortin receptor 4 = Melanocortin receptor 4 (Homo sapiens, UniProt P32245)
Further: assay procedure not described here.

Beta-2 adrenergic receptor, sequence (P07550 whole entry): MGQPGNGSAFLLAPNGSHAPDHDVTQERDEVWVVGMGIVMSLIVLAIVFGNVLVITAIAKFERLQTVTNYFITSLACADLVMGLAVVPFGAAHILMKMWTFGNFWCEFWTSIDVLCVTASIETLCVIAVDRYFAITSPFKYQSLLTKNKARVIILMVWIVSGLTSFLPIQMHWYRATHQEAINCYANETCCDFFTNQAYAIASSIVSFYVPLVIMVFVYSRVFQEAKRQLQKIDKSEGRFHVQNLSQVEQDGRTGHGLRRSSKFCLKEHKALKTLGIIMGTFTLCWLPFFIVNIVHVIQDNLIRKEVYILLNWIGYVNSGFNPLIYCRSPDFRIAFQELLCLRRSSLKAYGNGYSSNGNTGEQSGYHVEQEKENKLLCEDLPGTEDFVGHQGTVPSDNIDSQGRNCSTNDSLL
Sodium-dependent noradrenaline transporter, sequence (P23975 whole entry): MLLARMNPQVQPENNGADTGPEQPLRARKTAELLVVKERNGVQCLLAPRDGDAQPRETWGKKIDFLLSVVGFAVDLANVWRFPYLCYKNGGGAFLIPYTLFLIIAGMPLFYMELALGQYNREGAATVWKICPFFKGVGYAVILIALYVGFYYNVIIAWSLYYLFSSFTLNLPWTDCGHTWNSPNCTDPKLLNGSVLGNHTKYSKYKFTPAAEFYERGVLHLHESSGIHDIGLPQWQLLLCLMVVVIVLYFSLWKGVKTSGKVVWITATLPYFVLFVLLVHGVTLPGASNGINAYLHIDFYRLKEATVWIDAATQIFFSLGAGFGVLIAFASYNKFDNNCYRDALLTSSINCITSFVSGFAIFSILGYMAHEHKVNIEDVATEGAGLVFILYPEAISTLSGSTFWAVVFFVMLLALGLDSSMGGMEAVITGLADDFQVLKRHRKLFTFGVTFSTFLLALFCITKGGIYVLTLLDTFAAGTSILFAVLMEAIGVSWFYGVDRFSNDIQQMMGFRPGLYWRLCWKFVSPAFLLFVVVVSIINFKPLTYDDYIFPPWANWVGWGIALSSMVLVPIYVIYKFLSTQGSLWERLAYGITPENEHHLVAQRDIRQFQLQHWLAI
Mu-type opioid receptor, sequence (P35372 whole entry): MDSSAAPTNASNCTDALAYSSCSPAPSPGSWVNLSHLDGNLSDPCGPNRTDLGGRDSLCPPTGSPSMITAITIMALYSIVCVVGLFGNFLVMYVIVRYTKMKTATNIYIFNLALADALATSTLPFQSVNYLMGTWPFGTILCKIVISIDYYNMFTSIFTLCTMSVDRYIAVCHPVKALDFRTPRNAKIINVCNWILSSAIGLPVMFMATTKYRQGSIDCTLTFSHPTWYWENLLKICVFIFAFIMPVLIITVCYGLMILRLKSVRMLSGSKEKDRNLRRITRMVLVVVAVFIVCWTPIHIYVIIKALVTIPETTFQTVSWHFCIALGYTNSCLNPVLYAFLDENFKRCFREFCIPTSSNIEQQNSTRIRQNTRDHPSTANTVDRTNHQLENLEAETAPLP
Sodium-dependent dopamine transporter, sequence (Q01959 whole entry): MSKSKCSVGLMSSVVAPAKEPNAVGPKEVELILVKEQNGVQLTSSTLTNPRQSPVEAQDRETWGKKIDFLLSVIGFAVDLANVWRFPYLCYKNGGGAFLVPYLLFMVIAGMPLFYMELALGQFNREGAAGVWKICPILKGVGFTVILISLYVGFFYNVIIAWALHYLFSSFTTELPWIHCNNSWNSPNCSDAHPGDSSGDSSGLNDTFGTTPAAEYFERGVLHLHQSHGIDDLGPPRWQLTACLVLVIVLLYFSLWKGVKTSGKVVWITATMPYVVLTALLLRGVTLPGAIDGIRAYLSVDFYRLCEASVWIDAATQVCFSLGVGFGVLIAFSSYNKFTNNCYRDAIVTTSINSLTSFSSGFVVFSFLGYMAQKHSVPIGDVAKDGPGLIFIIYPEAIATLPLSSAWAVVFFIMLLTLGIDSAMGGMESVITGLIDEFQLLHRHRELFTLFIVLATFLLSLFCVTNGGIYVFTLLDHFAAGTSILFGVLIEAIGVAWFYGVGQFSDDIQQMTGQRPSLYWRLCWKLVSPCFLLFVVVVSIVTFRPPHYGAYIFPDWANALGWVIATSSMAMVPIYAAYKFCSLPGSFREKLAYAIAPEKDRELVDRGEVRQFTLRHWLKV
Acetylcholinesterase, sequence (P22303 whole entry): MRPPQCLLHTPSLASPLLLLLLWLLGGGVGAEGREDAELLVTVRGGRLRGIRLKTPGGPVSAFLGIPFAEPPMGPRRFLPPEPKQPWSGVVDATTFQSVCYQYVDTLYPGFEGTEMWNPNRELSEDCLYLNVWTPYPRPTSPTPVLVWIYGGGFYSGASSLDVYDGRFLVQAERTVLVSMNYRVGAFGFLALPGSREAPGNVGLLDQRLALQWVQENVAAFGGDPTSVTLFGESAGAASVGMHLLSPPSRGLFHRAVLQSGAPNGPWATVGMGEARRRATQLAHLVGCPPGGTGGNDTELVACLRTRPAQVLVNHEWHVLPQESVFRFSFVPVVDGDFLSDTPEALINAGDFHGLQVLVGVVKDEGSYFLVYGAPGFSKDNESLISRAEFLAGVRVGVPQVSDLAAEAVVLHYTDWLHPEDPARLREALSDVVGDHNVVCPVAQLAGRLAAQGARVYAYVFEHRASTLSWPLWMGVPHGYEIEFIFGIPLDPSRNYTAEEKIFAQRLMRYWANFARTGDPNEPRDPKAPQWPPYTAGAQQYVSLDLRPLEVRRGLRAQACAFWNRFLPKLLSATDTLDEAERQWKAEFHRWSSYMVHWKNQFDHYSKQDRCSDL
Prostaglandin G/H synthase 1, sequence (P23219 whole entry): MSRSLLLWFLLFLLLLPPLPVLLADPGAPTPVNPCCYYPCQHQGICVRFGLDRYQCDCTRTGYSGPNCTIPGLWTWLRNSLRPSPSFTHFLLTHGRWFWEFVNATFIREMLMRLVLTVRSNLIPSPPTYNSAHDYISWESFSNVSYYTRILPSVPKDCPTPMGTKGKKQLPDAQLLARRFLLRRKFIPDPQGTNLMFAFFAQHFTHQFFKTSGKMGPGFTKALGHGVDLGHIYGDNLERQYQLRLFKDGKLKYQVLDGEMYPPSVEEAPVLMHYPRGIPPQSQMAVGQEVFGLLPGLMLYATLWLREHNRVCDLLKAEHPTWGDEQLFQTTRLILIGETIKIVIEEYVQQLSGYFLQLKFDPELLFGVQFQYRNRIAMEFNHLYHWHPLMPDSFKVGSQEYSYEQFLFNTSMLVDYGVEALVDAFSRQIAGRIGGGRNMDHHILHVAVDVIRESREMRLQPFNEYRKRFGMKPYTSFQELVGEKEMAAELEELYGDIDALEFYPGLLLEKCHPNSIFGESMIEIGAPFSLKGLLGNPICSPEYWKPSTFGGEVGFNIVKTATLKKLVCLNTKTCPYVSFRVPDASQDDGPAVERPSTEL
Sodium-dependent serotonin transporter, sequence (P31645 whole entry): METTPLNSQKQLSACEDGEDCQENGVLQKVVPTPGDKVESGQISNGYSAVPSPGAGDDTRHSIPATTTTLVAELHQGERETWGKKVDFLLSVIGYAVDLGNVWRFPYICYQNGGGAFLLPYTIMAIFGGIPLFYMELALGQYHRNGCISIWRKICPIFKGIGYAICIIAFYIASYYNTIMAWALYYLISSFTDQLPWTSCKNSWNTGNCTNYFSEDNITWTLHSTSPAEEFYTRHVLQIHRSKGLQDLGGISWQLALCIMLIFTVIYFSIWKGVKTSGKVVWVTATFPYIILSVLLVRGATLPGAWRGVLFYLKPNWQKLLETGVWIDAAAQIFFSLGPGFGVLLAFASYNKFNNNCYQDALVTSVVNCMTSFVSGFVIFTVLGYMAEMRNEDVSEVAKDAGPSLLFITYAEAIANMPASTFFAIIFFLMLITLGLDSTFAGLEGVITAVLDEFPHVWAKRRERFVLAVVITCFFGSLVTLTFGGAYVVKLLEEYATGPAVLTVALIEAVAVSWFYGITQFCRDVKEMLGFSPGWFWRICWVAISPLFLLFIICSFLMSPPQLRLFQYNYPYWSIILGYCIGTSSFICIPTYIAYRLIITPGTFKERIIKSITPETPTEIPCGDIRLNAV
Histamine H2 receptor, sequence (P25021 whole entry): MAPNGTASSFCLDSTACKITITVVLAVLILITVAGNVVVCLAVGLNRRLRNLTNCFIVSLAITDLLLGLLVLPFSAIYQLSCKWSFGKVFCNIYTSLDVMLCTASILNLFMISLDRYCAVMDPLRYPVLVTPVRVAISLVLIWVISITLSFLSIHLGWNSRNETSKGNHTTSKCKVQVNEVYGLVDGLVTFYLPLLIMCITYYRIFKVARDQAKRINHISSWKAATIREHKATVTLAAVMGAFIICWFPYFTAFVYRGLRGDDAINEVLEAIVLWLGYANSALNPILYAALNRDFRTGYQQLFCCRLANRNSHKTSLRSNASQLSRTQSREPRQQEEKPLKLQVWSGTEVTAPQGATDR
D(3) dopamine receptor, sequence (P35462 whole entry): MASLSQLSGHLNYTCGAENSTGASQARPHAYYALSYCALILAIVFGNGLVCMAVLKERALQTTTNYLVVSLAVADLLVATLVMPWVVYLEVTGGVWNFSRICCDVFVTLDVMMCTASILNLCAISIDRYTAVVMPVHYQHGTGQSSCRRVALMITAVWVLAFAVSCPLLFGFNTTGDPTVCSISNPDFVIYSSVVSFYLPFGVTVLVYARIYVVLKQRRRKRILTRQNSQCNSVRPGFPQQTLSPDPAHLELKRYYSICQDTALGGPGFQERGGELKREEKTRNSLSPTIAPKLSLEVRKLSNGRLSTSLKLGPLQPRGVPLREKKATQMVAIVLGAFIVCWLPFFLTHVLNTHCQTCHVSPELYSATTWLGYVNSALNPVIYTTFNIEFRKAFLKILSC
Melanocortin receptor 4, sequence (P32245 whole entry): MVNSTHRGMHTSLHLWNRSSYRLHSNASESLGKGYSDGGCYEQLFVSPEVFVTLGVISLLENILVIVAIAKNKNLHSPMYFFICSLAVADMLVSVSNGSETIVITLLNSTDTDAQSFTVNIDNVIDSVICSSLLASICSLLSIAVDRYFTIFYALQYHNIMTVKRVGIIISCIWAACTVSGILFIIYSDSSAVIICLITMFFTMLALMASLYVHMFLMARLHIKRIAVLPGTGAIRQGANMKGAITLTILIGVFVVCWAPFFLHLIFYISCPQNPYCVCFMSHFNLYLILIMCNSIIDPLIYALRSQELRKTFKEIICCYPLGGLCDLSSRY

Row | Compound | AC50 [1] [µM] | AC50 [2] [µM] | AC50 (D(3) dopamine receptor) [µM] | AC50 [3] [µM] | AC50 [4] [µM] | AC50 (Acetylcholinesterase) [µM] | AC50 (Progesterone receptor [5]) [µM] | AC50 (Mu-type opioid receptor) [µM] | AC50 (Progesterone receptor [6]) [µM] | AC50 [7] [µM] | AC50 [8] [µM] | AC50 [9] [µM] | AC50 [10] [µM] | AC50 (Histamine H2 receptor) [µM] | AC50 (Melanocortin receptor 4) [µM]
1 | CCCCCCOc1nsnc1C1=CCCN(C)C1 [XANOMELINE] | 0.243 | 3.37 | 0.273 | > 30 | 2.74 | 17.2 |  |  |  |  |  |  |  |  | 
2 | CC(C)(S)[C@@H](N)C(=O)O [PENICILLAMINE] | > 30 | > 30 | > 30 |  | > 30 | > 30 |  |  |  |  |  |  |  |  | 
3 | CC(=O)Nc1ccc(O)cc1 [ACETAMINOPHEN] | > 30 | > 30 | > 30 | > 30 | > 30 | > 30 | > 30 | > 30 | > 30 | > 30 |  |  |  |  | 
4 | COc1cc2nc(N(C)CCCNC(=O)C3CCCO3)nc(N)c2cc1OC (configuration not stated) [ALFUZOSIN] |  |  |  |  |  |  | > 30 |  | > 30 |  | > 30 | > 30 | > 30 | > 30 | 
5 | Nc1nc(NC2CC2)c2ncn([C@H]3C=C[C@@H](CO)C3)c2n1 [ABACAVIR] |  |  |  |  |  |  | > 30 |  | > 30 |  | > 30 | > 30 |  | > 30 | 
6 | N[C@@H]1[C@H]2CN(c3nc4c(cc3F)c(=O)c(C(=O)O)cn4-c3ccc(F)cc3F)C[C@@H]12 [TROVAFLOXACIN] |  |  |  |  |  |  | > 30 | > 30 | > 30 | > 30 |  |  |  |  | 
7 | C[C@]12CC[C@@H]3c4ccc(O)cc4CC[C@H]3[C@@H]1C[C@@H](O)[C@@H]2O [ESTRIOL] | > 30 | 28.7 | > 30 | 12 | > 30 | > 30 |  |  |  |  |  |  |  |  | 
8 | CC(=O)NCCCS(=O)(=O)O [ACAMPROSATE] |  |  |  |  |  |  | > 30 |  | > 30 | > 30 | > 30 | > 30 |  | > 30 | 
9 | COCc1c(C(C)C)nc(C(C)C)c(/C=C/[C@@H](O)C[C@@H](O)CC(=O)O)c1-c1ccc(F)cc1 [CERIVASTATIN] | > 30 | > 30 | > 30 | > 30 | > 30 | > 30 |  |  |  |  |  |  |  |  | 
10 | c1cnc(N2CCN(Cc3ccc4c(c3)OCO4)CC2)nc1 [PIRIBEDIL] |  |  |  |  |  |  | > 30 | > 30 | > 30 | 20 |  | 12 |  |  | 
11 | Cc1c(C(=O)NN2CCCCC2)nn(-c2ccc(Cl)cc2Cl)c1-c1ccc(Cl)cc1 [RIMONABANT] |  |  |  |  |  |  | > 30 |  | > 30 | > 30 | 29.6 | > 30 | > 10 | > 10 | 28.2
12 | COc1ccccc1OCC(O)CN1CCN(CC(=O)Nc2c(C)cccc2C)CC1 (configuration not stated) [RANOLAZINE] |  |  |  |  |  |  | > 30 |  | > 30 |  | > 30 | > 30 | 5.7 | > 30 | 
13 | CN(C)CCC=C1c2ccccc2C(C)(C)c2ccccc21 |  |  |  |  |  |  | > 30 | 24 | > 30 | > 30 |  | 0.24 |  |  | 
14 | CC1=C(C(=O)O)N2C(=O)[C@@H](NC(=O)[C@H](N)c3ccccc3)[C@H]2SC1 [CEPHALEXIN ANHYDROUS] |  |  |  |  |  |  |  |  |  | > 10 | > 30 |  | > 10 | > 30 | > 30
15 | C[C@H]1CNCCc2ccc(Cl)cc21 [LORCASERIN] |  |  |  |  |  |  | > 30 | > 30 | > 30 | 4.4 |  |  |  |  | 
